Tests used:
[1] = system: patients experiencing severe acute GVHD; assay: Case studies: CBD for severe (grade 3-4) and/or refractory acute GVHD; format: in vivo, human
Method: This example describes cases studies that show the surprising efficacy of CBD treatment of patients experiencing severe acute GVHD.
A person with acute myeloid leukemia in second complete remission, underwent an allogeneic hematopoietic cell transplantation from a matched sibling donor with a myeloablative conditioning consisting of fludarabine (160 mg/m^2) and busulfex (12.8 mg/kg). One month post-transplantation they developed classic grade 4 acute GVHD of the gastro-intestinal tract (GIT) confirmed by intestinal biopsy. They were refractory to cyclosporine and high-dose steroids, and was then given second line therapy consisting of mycophenolate mofetil followed by extra-corporeal photopheresis (ECP), from which a partial response was obtained. The patient then developed severe myopathy and became bed restricted. During tapering off of steroids they had relapse of grade 4 acute GVHD with GIT and skin involvement. They were refractory to high-dose steroids and thus started oral cannabidiol (CBD) 150 mg twice a day. […] CBD was stopped several weeks later upon remission. […] Nevertheless, they developed chronic GVHD for which they were given low dose cyclosporine and low dose prednisone.
A person with Philadelphia positive acute lymphoid leukemia in first complete remission underwent an allogeneic hematopoietic cell transplantation from a matched unrelated donor with reduced intensity conditioning consisting of fludarabine (150 mg/m^2), busulfex (12.8 mg/kg) and ATG (Fresenius, 15 mg/kg). Two months after transplantation, they developed generalized erythroderma ranked as stage 3 and grade 2 acute GVHD of the skin, which was confirmed by skin biopsy. Due to refractoriness to tacrolimus, systemic and topical steroids they started ECP with some improvement but without remission. They were still on tacrolimus and steroids when 11 months post-transplantation they had severe worsening of their skin rash with generalized erythroderma and desquamation ranked as stage 4 and grade 4 acute GVHD of the skin. They started oral CBD 150 mg twice a day and prednisone 40 mg once a day. […] CBD was stopped 2 months later after obtaining complete remission of acute GVHD.
A person with acute myeloid leukemia in first complete remission, underwent an allogeneic hematopoietic cell transplantation from a matched sibling donor with myeloablative conditioning consisting of busulfex (12.8 mg/kg) and cyclophosphamide (120 mg/kg). Eight months post-transplantation, leukemia relapsed. They received salvage chemotherapy followed by donor lymphocyte infusion (DLI) and achieved a complete hematologic remission. One month post DLI they developed jaundice with bilirubin levels of 11.5 mg % (normal≤1 mg %) and biopsy proven late onset acute GVHD of the liver ranked as stage 3 and grade 3. They were refractory to high-dose steroids and started oral CBD 150 mg twice a day.

[2] = system: patients with late onset acute GVHD given steroids; assay: Case studies: CBD reduces the effective dose of steroids (late onset acute GVHD); format: in vivo, human
Method: Person one with secondary acute myeloid leukemia in 1st complete remission, underwent and allogeneic hematopoietic cell transplantation from a matched unrelated donor with a myeloablative conditioning consisting of fludarabine (160 mg/m^2), busulfex (12.8 mg/kg) and ATG (Fresenius, 15 mg/kg). Eleven months after transplantation they developed jaundice with bilirubin level of 4.2 mg % and biopsy proven late onset acute GVHD of the liver ranked as stage 2 and grade 3. […] They started oral CBD 150 mg BID. […] Steroids could be tapered off to a low dose of 7.5 mg QD.
person two with refractory follicular lymphoma underwent an allogeneic hematopoietic cell transplantation from a matched unrelated donor with a reduced intensity conditioning consisting of fludarabine (150 mg/m^2), melphalan (100 mg/m^2) and ATG (Fresenius 15 mg/kg) and achieved a complete remission. Two years later they relapsed and received salvage immune-chemotherapy with bendamustine and rituximab followed by DLI and achieved a complete remission. One month later they were admitted with severe late onset acute GVHD with skin (rash) and upper (nausea and vomiting) plus lower gastrointestinal involvement (bloody diarrhea, crampy abdominal pain and severely inflamed and ulcerated mucosa). Biopsy proven GVHD was ranked as stage 3 of the skin and stage 4 and grade 4 acute GVHD of the GIT. They started cyclosporine and high-dose steroids. Despite skin response, GVHD of the GIT was refractory to prolonged systemic treatment of steroids. […] Prednisone was tapered off to 20 mg QD (40%)—found to be therapeutically effective.

[3] = system: patients with extensive chronic GVHD after allogeneic HCT; assay: CBD treatment for chronic GVHD (12 patients); format: in vivo, human; details: oral CBD 50 mg twice a day
Method: Twelve patients over 18 years of age with extensive chronic GVHD after allogeneic HCT were recruited at the Rabin Medical Center in Israel. Patients having a history of psychosis or asthma, or consuming Cannabis during the last two months before transplantation were excluded from the study.
Patients were presently treated with a calcineurine inhibitor (cyclosporine or tacrolimus) with or without oral prednisone.
Patients were given oral CBD 50 mg twice a day.

[4] = system: patients undergoing allogeneic hematopoietic stem cell transplantation; assay: Prevention of acute and chronic GVHD in allogeneic stem cell transplanted patients (46 patients); format: in vivo, human; parameters: Non-relapse mortality / Overall survival rate: concentration or dose not given beside the values
Method: Forty six (46) patients over 18 years of age undergoing allogeneic hematopoietic stem cell transplantation at the Rabin Medical Center in Israel were recruited. Patients having history of psychosis or asthma, or consuming Cannabis during the last two months before transplantation were excluded from the study.
All patients received standard GVHD prophylaxis consisting of cyclosporine twice a day starting on day −1 with target trough levels ≥200 ng/mL in combination with short course of methotrexate (15 mg/sqm on day +1 and 10 mg/sqm on days +3 and +6). Most patients transplanted from unrelated donors received anti-T-cell globulin (ATG Fresenius) at a low dose of 5 mg/kg on days −3 to −1.
The investigational agent, CBD (STI Pharmaceuticals, Brentwood, Essex, UK) was dissolved in olive oil at a concentration of 2.5% and was orally administered from day −7 through day +30. The starting dose of CBD was 10 mg twice a day, and doses were doubled every other day to a maximal dose of 150 mg twice a day.
To estimate the prophylactic and therapeutic effect of Cannabidiol, the patients were carefully monitored and documented for the presentation of acute and chronic GVHD symptoms, the time of onset, the severity of the symptoms, the responsiveness to treatment, and the occurrence of infections.
Furthermore, a panel of 4 serum cytokines (soluble TNF receptor 1 (sTNFRI), soluble IL-2 receptor alpha (sIL2R-alpha), hepatocyte growth factor (HGF), and IL8)) were monitored. Blood samples were taken at days −7(A), 0(B), +14(C), and +28(D). The difference in blood levels between the various time points (B-A, C-B and D-C) were assessed.
Primary end points were safety and cumulative incidence of grade 2-4 and grade 3-4 GVHD by day +100. The secondary end points were cumulative incidence of chronic and severe chronic GVHD, non-relapse mortality (NRM), relapse incidence (RI), and overall survival (OS). NRM mortality was defined as death while the patient was in CR. Cumulative incidence curves were used for acute GVHD and chronic GVHD estimation, taking into account relapse and death as competing risks. Cumulative incidence curves were used for RI and NRM taking into account disease recurrence and death as competing events. Probabilities of OS and LFS were calculated using the Kaplan-Meier estimates.

[5] = system: patients experiencing severe refractory chronic GVHD; assay: Case studies: CBD for severe refractory chronic GVHD; format: in vivo, human; details: person
Method: This example describes cases studies that show the surprising efficacy of CBD treatment of patients experiencing severe refractory chronic GVHD.
A person with acute lymphoid leukemia in first complete remission, underwent an allogeneic hematopoietic cell transplantation from a matched unrelated donor with myeloablative conditioning consisting of total body irradiation (12 Gray), cyclophosphamide and ATG (Fresenius, 15 mg/kg). The patient developed an overlap syndrome (concomitant acute plus chronic GVHD features) during the first month after transplantation which was treated with cyclosporine and steroids until complete remission. Immunosuppression was stopped 5 months after transplantation. Eighteen months after transplantation they developed chronic extensive GVHD with involvement of the oral cavity, eyes, liver, joints and skin. Skin involvement progressed to sclerosis. They started again cyclosporine and oral steroids with no improvement. There was no further improvement with imatinib (Gleevec). […] Unexpectedly, Prednisone effective therapeutic dose was tapered off up to 7.5-10 mg QD (20-50% reduction in the steroid's dose).
A person with acute myeloid leukemia in second complete remission underwent an allogeneic hematopoietic cell transplantation from a matched sibling donor with myeloablative conditioning consisting of busulfex (12.8 mg/kg) and cyclophosphamide (120 mg/kg). The patient experienced relapse in the central nervous system and breasts 12 months after transplantation, received chemo-radiotherapy and achieved complete remission. Shortly after remission, they developed chronic extensive GVHD with severe involvement of the eyes, joint and skin. Skin involvement progressed to severe sclerosis with limited range of motion of the joints. They were unresponsive to cyclosporine and oral steroids and therefore they were stopped after few months.

[6] = system: patient suffering from psychological or neurological disorders; details: doses of up to 1500 mg per day; cited from earlier work
[7] = person, stage 3 grade 3 acute GVHD of the liver, oral CBD 150 mg twice a day
[8] = with calcineurine inhibitor with or without oral prednisone
[9] = of the 11 patients with chronic GVHD

## C=C(C)[C@@H]1CCC(C)=C[C@H]1c1c(O)cc(CCCCC)cc1O [CBD, 2-[(6R)-3-Methyl-6-prop-1-en-2-yl-1cyclohex-2-envyl]-5pentylbenzene-1,3-diol]
[1]; acute Grade 3 and Grade 4 GVHD
  effect on refractory steroid dose (conclusion of case studies): rendered a refractory dose of a steroid-therapeutically effective
[1]; person, refractory to high-dose steroids, oral CBD 150 mg twice a day, after 14 days
  clinical response, grade 4 acute GVHD with GIT and skin involvement: complete cessation of diarrhea and resolution of their skin rash
[1]; person, stage 3 grade 3 acute GVHD of the liver, baseline 11.5 mg %, refractory to high-dose steroids, oral CBD 150 mg twice a day
  bilirubin level after treatment: 0.7-1.3 mg %
[1]; [7]
  jaundice: resolved within few days
  steroid tapering: tapered off until complete cessation
[1]; person, eighteen months following cessation of treatment
  acute GVHD status at follow-up: no symptoms or signs of acute GVHD
[1]; person, oral CBD 150 mg twice a day and prednisone 40 mg once a day, on tacrolimus
  skin rash and desquamation, stage 4 and grade 4 acute GVHD of the skin: improved promptly until complete resolution
[2]; person one, bilirubin 8.5 mg % on tacrolimus and steroids, oral CBD 150 mg BID
  jaundice and bilirubin, stage 3 and grade 3 acute GVHD of the liver: Jaundice resolved gradually and bilirubin dropped to normal levels
[2]; person one, oral CBD 150 mg BID
  steroid dose tapered off to: 7.5 mg QD
[2]; person two, refractory to prolonged systemic steroids, oral CBD 150 mg BID with steroids
  clinical response, stage 4 and grade 4 acute GVHD of the GIT: very good partial response (VGPR)
[2]; person two, methylprednisolone 0.5 mg/kg QD and CBD 150 mg BID
  response upon renewal of treatment: A second VGPR was obtained
[2]; person two, oral CBD 150 mg BID
  Prednisone tapered off to: 20 mg QD
[2]; person two, oral CBD 150 mg BID, prednisone 20 mg QD
  Prednisone tapered dose, printed percentage: 40%
[2]; person two, two months later, CBD discontinued without doctors' approval
  outcome after discontinuing CBD: diarrhea resumed following discontinuing CBD
[3]
  effect on severity of chronic GVHD (conclusion): reduces the severity of chronic GVHD
[3]; [8]
  clinical improvement, patients with lung involvement: 2 out of 3
  clinical improvement, patients with oral involvement: 3 out of 3
  clinical improvement, patients with skin involvement: 6 out of 8
[4]; 6 months after HCT
  Cumulative incidence of relapse: 22%
  Non-relapse mortality: 11.6%
  Overall survival rate: 76%
[4]; 12 months after HCT
  Cumulative incidence of relapse: 31%
  Non-relapse mortality: 11.6%
  Overall survival rate: 70%
[4]; 46 patients recruited, CBD prophylaxis
  patients who developed grade 2 to 4 acute GVHD: Six
[4]; 100 days after HCT
  Cumulative incidence of relapse: 12%
  Non-relapse mortality: 8.1%
  Overall survival rate: 84%
[4]; after allogeneic stem cell transplantation
  effect on incidence and severity of GVHD (conclusion): reduces the incidence and severity of acute and chronic GVHD
[4]; among patients surviving more than 100 days after HCT (n=33)
  patients in whom chronic GVHD occurred: 11 patients
[4]; at 1 year
  Cumulative incidence rate of extensive chronic GVHD: 19%
  Cumulative incidence rate of overall chronic GVHD: 43%
[4]; at day 100
  Cumulative incidence rate of grade 2 to 4 acute GVHD: 12.4%
  Cumulative incidence rate of grade 3 to 4 acute GVHD: 5%
[4]; [9]
  patients with limited chronic GVHD: 8 patients
  patients with severe chronic GVHD: 3 patients
[4]; oral CBD 2.5% in olive oil, day -7 to +30, 10 mg up to 150 mg twice a day, with cyclosporine + methotrexate prophylaxis
  grade 3 to 4 toxicities related to CBD: No grade 3 to 4 toxicities related to CBD were observed
[4]; preventing acute and chronic GVHD
  toxicity and psychotropic effects (conclusion): low toxicity and lack of psychotropic effects
[4]; range 41 to 150 days
  Median time to onset of grade 2 to 4 acute GVHD: 60 days
[4]; range 125 to 335 days
  median time to onset of chronic GVHD: 159 days
[5]; cyclosporine and oral steroids stopped, oral CBD 75 mg BID, after several months
  clinical response, chronic extensive GVHD with severe sclerosis: significant improvement of their skin and joints range of motion
[5]; no improvement with cyclosporine, oral steroids, imatinib, oral CBD 75 mg twice a day, after several weeks
  clinical response, chronic extensive GVHD (oral cavity, eyes, liver, joints, skin sclerosis): resolved their liver and oral GVHD and significantly improved skin sclerosis and joint range of motion
[5]; oral CBD 75 mg twice a day
  Prednisone effective therapeutic dose tapered off up to: 7.5-10 mg QD
  reduction in the steroid's dose: 20-50%
[6]
  adverse effects in clinical studies: without any significant adverse effects
